From patent EP0565593B1, “REDUCING PESTICIDAL INTERACTIONS IN CROPS” (priority 1990, dated 1992) come the findings set out here.

Molecules are shown by their SMILES. Values joined by “and” are separate entries in the source; they are usually repeats but may differ in a detail not shown here. Equal values may be shown once. Read-outs that look alike come from different tables or passages of the source.

In test [1] the test system is velvetleaf (Abutilon theophrasti). Kind of test: Greenhouse test, combination of Procedures II and III (Examples 1, 2; Tables 1, 2). Conditions: 3 weeks. It counts as in vivo.
The subject of test [2] is Corn. Kind of test: Greenhouse test, combination of Procedures II and III: insecticide in-furrow or in cover layer, herbicide and antidote incorporated in cover layer (Examples 1-3, 6; Tables 1-3, 6). Conditions: for % Injury Corn: 3 weeks. It is filed as in vivo.
Test [3] deals with Corn. Kind of test: Greenhouse test Procedure VI: biocide and antidote in furrow, herbicide PPI in cover layer (Examples 43-47, 59-61; Tables 42-46, 58-60). It counts as in vivo. Particulars: Example 43; Antidotes 1, 7, 12, 33. The source says: This procedure describes interaction among herbicide, biocide and antidote when the herbicide is incorporated in a soil cover layer and the biocide and the antidote are applied in a soil furrow containing crop seed before emergence of the crop. The soil and seeding depth were described in Procedure IV. A first container was designated as an untreated control, a second container was designated as a herbicide control, a third container was designated as a herbicide + biocide control and a fourth container as a herbicide + biocide + antidote test container. The biocide and antidote were formulated as granules. The biocide was applied to the soil furrows of the third and fourth containers at an application rate of 1.1 mg of active compound per cm of row. The antidote was applied to the soil furrow of the fourth container at an application rate of 0.37 mg of active compound per cm of row. A measured amount of the herbicide dispersed or dissolved in acetone was applied to a measured quantity of soil. The quantity of soil treated with the herbicide was thoroughly mixed to incorporate the herbicide. Samples of this soil were used to cover the seed beds of the second, third and fourth containers. For each test series, the seed bed of the first container was likewise covered by a soil layer not treated with herbicide and without biocide or antidote in the soil furrow.
The containers were then placed on a bench in a greenhouse. Watering was by subirrigation plus overhead irrigation after the plants emerged. All treatments were run in duplicate. Plant response was observed according to Procedure IV. Variations in this procedure will be noted in the examples.
In continuing tests to evaluate the variations of this invention, a series of tests were conducted to determine the efficacy of the above safeners in Examples 39-42 to alleviate corn injury induced by the interaction of various additional commercial sulfonylurea herbicides with COUNTER 15G insecticide. In this example, the tests were conducted according to Procedure VI above. In modifications of that procedure, herbicides were applied to soil samples as acetone/water suspensions, incorporated by shaking in a closed container, with subsamples used to cover furrow-treated 10.2 cm pots. Pots were subirrigated followed by overhead misting on days 6-10.
This example was designed to test the safening effect of those above safeners used in this test series to relieve corn injury by negative synergism induced by interaction of COUNTER 15G and three imidazolinone herbicides, i.e., imazaquin and imazapyr (used in the POE tests in Example 41) and AC 263222 (a.i. in CADRE® herbicide). As differing from the tests in Example 41, this test was a PPI test according to Procedure VI described above. Observation of test results (Table 43) were taken thirteen 913) days after in-furrow PPI preparation.
This example describes PPI tests to evaluate said test safeners in this series with analogs of the sulfonamide herbicides tested under POE herbicide application procedures described in Example 42. In these tests, conducted according to Procedure VI described above, Herbicide Nos. 20, 22 and 24 were applied PPI with the insecticide and antidote. Observations of tests results were made thirteen days after PPI initiation.
An additional three (3) sulfonamide herbicide analogs were tested simultaneously and under the same conditions described in Example 45.
Another test of this invention involved the safening effects of the safeners in this series against negative synergy inducted by the interaction of COUNTER 15G and a sulfonylurea herbicide (OUST®), Herbicide No. 13, and PURSUIT, an imidazolinone herbicide, No. 6. Test conditions were the same as those in Examples 43-46. Other procedures for applying herbicidal formulations are as described in Example 42. […]

For test [4], the system named is Corn. Conditions: […].
In test [5] the test system is Velvetleaf (VELE). Kind of test: whole plant or invertebrate. It counts as in vivo, Abutilon theophrasti. Conditions: […]; PPI; 14 days after PPI (Table 34).
In test [6] the test system is Velvetleaf (VELE). It counts as in vivo, Abutilon theophrasti. Conditions: […].
Another test deals with Giant foxtail (GIFT). Kind of test: whole plant or invertebrate. Conditions: […]; PPI; 14 days after PPI (Table 34). It is filed as in vivo.
In the next test the test system is Shattercane (SHCA). It counts as in vivo. Conditions: […].
Test [7] relates to Corn. Kind of test: Greenhouse test Procedure VII: biocide and antidote in furrow, herbicide POE (Examples 39-42, 48-50, 56-58; Tables 38-41, 47-49, 55-57). Particulars: Herbicide No. 8 0.28 Kg/Ha POE + COUNTER 15G 227 g/305 m + antidote in furrow. It counts as in vivo. From the text:
This procedure describes interaction among herbicide, biocide and antidote when the biocide and the antidote is applied to a soil furrow containing crop seed before emergence of the crop and the herbicide is applied after emergence of the crop and weeds. The soil and planting depth was described in Procedure IV. The containers for comparison, the biocide and antidote applications to soil furrows were described in Procedure VI. In this procedure, the seed beds of the first, second, third and fourth containers are covered by soil layers not treated with herbicide. The containers were then placed on a bench in a greenhouse and subirrigated as required for the duration of the test. The herbicide, dispersed or dissolved in water containing 0.25% v/v nonionic surfactant (X-77) was applied by a track sprayer (187 L/ha) to the emerged plants of the second, third and fourth containers about five days after planting. All treatments were run in duplicate. Plant response was observed according to Procedure IV. Variations in this procedure will be noted in the examples.
In this example, tests were conducted according to Procedure VII for the POE application of the herbicides following in-furrow application of COUNTER® 15G insecticide (BIOCIDE No. 1) and the antidote on the pre-planted test seeds. In this test, the herbicides were Nos. 1 (MON-12000), 10 (ALLY®) and #4 (HARMONY®) and the Antidote Nos. 1, 7, 12 and 33.
These in-furrow treatments comprised a 50-50 mix of blended granules of COUNTER with and without 5G granular antidotes at 7.4 + 7.4 mg/cm or 1.1 + 0.37 mg active ingredient (a.i.)/cm. The in-furrow initiation of the test was followed five (5) days later with POE application of the herbicides; observations were made eight (8) days later.
In another test, conducted simultaneously with that in Example 39, Herbicide Nos. 5 (chlorimuron ethyl, active ingredient in CLASSIC® herbicide), 7 (nicosulfuron, active ingredient in ACCENT® herbicide) and 15 (tribenuron methyl, active ingredient in EXPRESS® herbicide) were substituted as test herbicides.
In this example, using the same procedure as above, the following imidazolinone herbicides were used with the same insecticide/biocide and antidotes as above: Herb. No. 16 (imazaquin, a.i. in SCEPTER® herbicide; No. 19 (Code No. AC 222293, a.i. in ASSERT® herbicide); No. 6 (imazethapyr, a.i. in PURSUIT® herbicide and No. 18 (imazapyr, a.i. in ARSENAL® herbicide). Test results are shown in Table 40. Table 40
This example describes the testing of the above antidotes used in Examples 39-41 to safen negative synergy interactions between representative species of the class of herbicidal compounds identified as azolopyrimidine sulfonamides and COUNTER 15G. The same procedure used in the above examples was conducted in this test. In this test, the herbicides were formulated in 17% acetone and 83% water with 0.25% v/v X-77 surfactant.
In these tests (according to Procedure VII) the safeners in solution with acetone were applied in furrow to the soil, followed by COUNTER 15G granules at 227 g/305 m (8 oz./1000'). Applications were made in alternate rows in two separate 13.7 cm x 27.7 cm pans containing Dupo silt loam. Pans were seeded 1.3 cm deep, placed on benches in a greenhouse and subirrigated. BEACON was formulated in water with 0.25% v/v X-77 surfactant and applied by track sprayer at a rate of 187 L/Ha (20 gal/A). Weed species in this test were giant foxtail, shattercane and velvetleaf. The herbicide was applied five (5) days after PPI initiation and observation of test result (shown in Table 47) made eight (8) days later.
In Table 47 COUNTER 15G is abbreviated as "C" and the antidotes as "A" in the column headings which indicate the "C + A" ratios used in the tests. Control and COUNTER treatments are average of four (4) replications and COUNTER + Antidote treatments, average of 2 reps. […]

Test [8] deals with Corn. Conditions: […]; PPI; 14 days after PPI (Table 34).
The mark [9] stands for this setting: Ex. 2: Insecticide 2 3.36 Kg/Ha + Herbicide 2 4.48 Kg/Ha.
Setting [10] is: Ex. 2: Insecticide 1 (0.23 Kg/Ha) + Herbicide 9 2.24 Kg/Ha.
[11] abbreviates: Ex. 2: Insecticide 2 3.36 Kg/Ha + Herbicide 9 2.24 Kg/Ha.
Where [12] appears, read: observed 8 days later (Table 32).
Setting [13] is: observed 8 days later (Table 33).

Turning to `CCOCN(C(=O)CCl)c1c(C)cccc1CC` [Herbicide No. 2, 2-Chloro-2'-ethyl-6'-methyl-N-(ethoxymethyl)acetanilide, reference compound], the “% Injury VELE” value in test [1] (setting [9]) amounted to 35%. In addition, the “% Injury Corn” value in the test on Corn [2] (Ex. 2: Insecticide 1 0.23 Kg/305m (ditto mark) + Herbicide 2 4.48 Kg/Ha (so in the source)) is 66% and 93%; in the test on Corn [2] (setting [9]), 76%; with Corn [2] (Ex. 3: Herbicide 2 4.48 Kg/Ha) it was 78%; in the test with Corn [2] (Ex. 3: Insecticide 3 (227 g) + Herbicide 2 4.48 Kg/Ha), 83%; in the test on Corn [2] (Ex. 3: Insecticide 4 (227g) + Herbicide 2 4.48 Kg/Ha), 95%.

Take `CCNc1nc(Cl)nc(NC(C)C)n1` [Herbicide No. 9, 2-Chloro-4-(ethylamino)-6-(isopropylamino)-S-triazine, reference compound]: the “% Injury VELE” value in test [1] (setting [10]) was determined as 88%; in [1] (setting [11]) it was 30%. For the same compound, the “% Injury Corn” value in the test with Corn [2] (setting [10]) is 3%; with Corn [2] (setting [11]), 0%; in the test on Corn [2] (Ex. 3: Herbicide 9 2.24 Kg/Ha) it was 0%; in the test on Corn [2] (Ex. 3: Insecticide 3 (227 g) + Herbicide 9 2.24 Kg/Ha), 0%; with Corn [2] (Ex. 3: Insecticide 4 (227 g) + Herbicide 9 2.24 Kg/Ha), 0%. Also, the “injury to corn” value in the test on Corn [2] (Ex. 2: combination of the insecticides (Nos. 1, 2) with atrazine) was “did not appear to be any significant injury”.

`COc1nc(C)nc(NC(=O)NS(=O)(=O)c2ccccc2OCCCl)n1` [Herbicide No. 11, Benzenesulfonamide, 2-(2-chloroethoxy)-N-[[(4-methoxy-6-methyl-1,3,5-triazin-2-yl)amino]carbonyl]-, reference compound]: the “safening of herbicide/COUNTER 15G corn injury by the antidotes” value with Corn [3] is listed as “effectively reduced corn injury”.

As for `COc1nc(C)nc(NC(=O)NS(=O)(=O)c2ccccc2Cl)n1` [Herbicide No. 12, Benzenesulfonamide, 2-chloro-N-[[(4-methoxy-6-methyl-1,3,5-triazin-2-yl)amino]carbonyl]-, reference compound], in the test with Corn [3], the “safening of herbicide/COUNTER 15G corn injury by the antidotes” value is on record as “effectively reduced corn injury”.

Regarding `COC(=O)c1ccccc1S(=O)(=O)NC(=O)Nc1nc(C)cc(C)n1` [Herbicide No. 13, reference compound], in the test with Corn [3], the “safening of herbicide/COUNTER 15G corn injury by the antidotes” value is “limited to nil”.

Take `COC(=O)c1ccccc1CS(=O)(=O)NC(=O)Nc1nc(OC)cc(OC)n1` [Herbicide No. 14, Benzoic acid, 2-[[[[[(4,6-dimethoxy-2-pyrimidinyl)amino]carbonyl]amino]sulfonyl]methyl]-, methyl ester, reference compound]: in the test on Corn [3], the “safening of herbicide/COUNTER 15G corn injury by the antidotes” value is on record as “effectively reduced corn injury”.

As to `CCSC(=O)COC(c1ccccc1)c1ccccc1` [compound 51], the figures for the “% Inhibition Corn” value with Corn [4] (setting [12]), in the test on Corn [4] (setting [13]) and with Corn [8] were 0%, 30% and 25%, respectively. Further, the figures for the “% Inhibition VELE” value with Velvetleaf (VELE) [5], in the test on Velvetleaf (VELE) [6] (setting [12]) and in the test on Velvetleaf (VELE) [6] (setting [13]) were 90%, 85% and 70%, respectively. In addition, the “% Inhibition GIFT” value with Giant foxtail (GIFT) came to 65%. Besides, the “% Inhibition SHCA” value worked out at 80% with Shattercane (SHCA) (setting [12]) and 35% in the test on Shattercane (SHCA) (setting [13]). In addition, in the test on Corn [7] (C:A ratio 5), the “% Corn Inhibition C:A Ratios 5” value came to 0%. The “% Corn Inhibition C:A Ratios 10” value with Corn [7] (C:A ratio 10) is on record as 5%. Further, in the test on Corn [7] (C:A ratio 20), the “% Corn Inhibition C:A Ratios 20” value turned out to be 3%. In the test with Corn [7] (C:A ratio 40), the “% Corn Inhibition C:A Ratios 40” value is reported as 8%. Moreover, the “% Corn Inhibition C:A Ratios 80” value with Corn [7] (C:A ratio 80) was determined as 10%. Besides, in the test with Corn [7] (C:A ratio 160), the “% Corn Inhibition C:A Ratios 160” value was 10%.
